Data: ChEMBL document CHEMBL1201862, “PubChem BioAssay data set” (2004)
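In this assay, cells in 96-well plates receive the compound at five concentrations for 48 hours. Endpoints are linearly interpolated between the surrounding concentrations. GI50: concentration for 50% inhibition of growth.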 Calls of active or inactive are those of the source. Rule as the data show it: active = GI50 up to about 1.1 µM and inactive = higher. Peptide text beside a SMILES is read from it. * marks the point of attachment. X27 = Clc1c(Cl)c(Cl)c(O*)c(Cl)c1Cl; Boc = CC(C)(C)OC(=O)*; OBn = c1ccc(CO*)cc1; Bn = c1ccc(C*)cc1

Experiments:
Test in all cases: NCI-60 cell line screen, 48 h
[1] = system: OVCAR-8
[2] = system: NCI/ADR-RES
[3] = system: SK-OV-3
[4] = system: OVCAR-5
[5] = system: MOLT-4
[6] = system: HOP-92
[7] = system: PC-3
[8] = system: HCC 2998
[9] = system: CCRF-CEM
[10] = system: MDA-MB-435
[11] = system: SK-MEL-28
[12] = system: MCF7
[13] = system: BT-549
[14] = system: 786-0
[15] = system: HCT-15
[16] = system: SR
[17] = system: SF-539
[18] = system: HCT-116
[19] = system: LOX IMVI
[20] = system: DU-145

Row | Compound | GI50 [1] | GI50 [2] | GI50 [3] | GI50 [4] | GI50 [5] | GI50 [6] | GI50 [7] | GI50 [8] | GI50 [9] | GI50 [10] | GI50 [11] | GI50 [12] | GI50 [13] | GI50 [14] | GI50 [15] | GI50 [16] | GI50 [17] | GI50 [18] | GI50 [19] | GI50 [20]
1 | O=C(N/N=C\c1cccs1)c1ccncc1 | > 100 µM (inactive) | > 100 µM (inactive) | > 100 µM (inactive) | > 100 µM (inactive) | > 100 µM (inactive) | > 100 µM (inactive) | > 100 µM (inactive) | > 100 µM (inactive) | > 100 µM (inactive) | > 100 µM (inactive) | > 100 µM (inactive) | > 100 µM (inactive) | > 100 µM (inactive) | > 100 µM (inactive) | > 100 µM | > 100 µM (inactive) | > 100 µM (inactive) | > 100 µM (inactive) |  | 
2 | COc1ccc(C2C3=C(CCCC3=O)N(c3ccccc3)C3=C2C(=O)CCC3)cc1 |  | > 100 µM (inactive) | 50.6 µM (inactive) | > 100 µM (inactive) | > 100 µM (inactive) | 29 µM (inactive) | > 100 µM (inactive) |  | > 100 µM (inactive) |  | > 100 µM (inactive) | 43.8 µM (inactive) | 29.4 µM (inactive) | 45.6 µM (inactive) | > 100 µM | > 100 µM (inactive) | > 100 µM (inactive) |  | > 100 µM (inactive) | 
3 | COc1cc(N(Cc2ccc3oc(=O)c(-c4ccccc4)nc3c2)Cc2ccc3oc(=O)c(-c4ccccc4)nc3c2)cc(OC)c1OC | > 10 µM (inactive) | > 10 µM (inactive) | > 10 µM (inactive) | > 10 µM (inactive) | > 10 µM (inactive) | > 10 µM (inactive) | > 10 µM (inactive) | > 10 µM (inactive) | > 10 µM (inactive) | > 10 µM (inactive) | > 10 µM (inactive) | > 10 µM (inactive) |  | > 10 µM (inactive) | > 10 µM | > 10 µM (inactive) | > 10 µM (inactive) | > 10 µM (inactive) | > 10 µM (inactive) | > 10 µM (inactive)
4 | CC(NC(=O)/C(=C/c1ccccc1O)NC(=O)c1ccccc1)C(=O)O (stereo not given) | 15.7 µM (inactive) | 12.7 µM (inactive) | 19.4 µM (inactive) | > 100 µM (inactive) | > 100 µM (inactive) | 22.2 µM (inactive) |  | 9.23 µM (inactive) | > 100 µM (inactive) | 27.8 µM (inactive) | > 100 µM (inactive) | 5.85 µM (inactive) | 18.9 µM (inactive) | 24.9 µM (inactive) | 24.1 µM |  | 18.1 µM (inactive) | 33.2 µM (inactive) | 33.2 µM (inactive) | 45.6 µM (inactive)
5 | COC(=O)c1cc(Br)c(C(=O)C(Cl)(Cl)Cl)[nH]1 | > 100 µM (inactive) | > 100 µM (inactive) | > 100 µM (inactive) | > 100 µM (inactive) | > 100 µM (inactive) | > 100 µM (inactive) | > 100 µM (inactive) |  | > 100 µM (inactive) | > 100 µM (inactive) | > 100 µM (inactive) |  | > 100 µM (inactive) | > 100 µM (inactive) | > 100 µM |  | > 100 µM (inactive) | > 100 µM (inactive) | > 100 µM (inactive) | > 100 µM (inactive)
6 | O=c1[nH]c(=O)n(C2CC(O)C(COP(=O)(OCC(Cl)(Cl)Cl)OCC(Cl)(Cl)Cl)O2)cc1F (stereo not given) | 0.556 µM (active) | 1.29 µM (inactive) | > 48.6 µM (inactive) | > 94.2 µM (inactive) | 1.1 µM (active) | 6.9 µM (inactive) | 15.2 µM (inactive) | < 0.01 µM (active) | 0.195 µM (active) | > 86.3 µM (inactive) | > 28.6 µM (inactive) | 0.0619 µM (active) |  | 0.245 µM (active) | > 56.1 µM | 0.391 µM (active) |  | 2.21 µM (inactive) | > 35.1 µM (inactive) | 2.81 µM (inactive)
7 | Cc1ccc(S(=O)(=O)NC(=O)NCC(=O)O)cc1 | > 100 µM (inactive) | > 100 µM (inactive) | > 100 µM (inactive) | > 100 µM (inactive) | > 100 µM (inactive) | > 100 µM (inactive) | > 100 µM (inactive) |  | > 100 µM (inactive) |  | > 100 µM (inactive) | > 100 µM (inactive) | > 100 µM (inactive) | > 100 µM (inactive) | > 100 µM |  | > 100 µM (inactive) | > 100 µM (inactive) | > 100 µM (inactive) | > 100 µM (inactive)
8 | NNC(=O)CNC(=O)CSc1nnc(COc2ccc(Cl)cc2)n1-c1ccccc1 | > 100 µM (inactive) | > 100 µM (inactive) | > 100 µM (inactive) | > 100 µM (inactive) | > 100 µM (inactive) | > 100 µM (inactive) | > 100 µM (inactive) | > 100 µM (inactive) | 60.5 µM (inactive) | > 100 µM (inactive) | > 100 µM (inactive) | > 100 µM (inactive) |  | > 100 µM (inactive) | > 100 µM |  | > 100 µM (inactive) | > 100 µM (inactive) | > 100 µM (inactive) | > 100 µM (inactive)
9 | CCN(CC)CCNC(=O)c1cc2cc(NC(=O)c3cc4cc(NC(=O)c5cc6cc([N+](=O)[O-])ccc6[nH]5)ccc4[nH]3)ccc2[nH]1 | > 100 µM (inactive) | > 100 µM (inactive) | > 100 µM (inactive) | > 100 µM (inactive) | < 0.01 µM (active) | > 100 µM (inactive) | > 100 µM (inactive) | > 100 µM (inactive) | 10.6 µM (inactive) | > 100 µM (inactive) | > 100 µM (inactive) |  | > 100 µM (inactive) | > 100 µM (inactive) | > 100 µM | < 0.01 µM (active) |  |  | > 100 µM (inactive) | > 100 µM (inactive)
10 | CCOc1ccc(N/C(=C(/C(Cl)=C(/Cl)N(CC)CC)[N+](=O)[O-])n2nnc3ccccc32)cc1 | 16.2 µM (inactive) | 21.1 µM (inactive) | 56.1 µM (inactive) | 33.3 µM (inactive) | > 100 µM (inactive) |  | 17.5 µM (inactive) | > 100 µM (inactive) | 19.8 µM (inactive) | 19.5 µM (inactive) | 20 µM (inactive) | 29.9 µM (inactive) | 19.8 µM (inactive) | 17.2 µM (inactive) | 19.1 µM |  | 23.2 µM (inactive) | 16.7 µM (inactive) |  | 
11 | CC(C)CC(NC(=O)C(CCC(=O)OCc1ccccc1)NC(=O)OC(C)(C)C)C(=O)NC(COCc1ccccc1)C(=O)NC(Cc1ccccc1)C(=O)Oc1c(Cl)c(Cl)c(Cl)c(Cl)c1Cl (stereo not given) (Boc-E(OBn)LS(Bn)F-X27; configuration not given here) | 27 µM (inactive) | 27.4 µM (inactive) | 28.5 µM (inactive) | 25.3 µM (inactive) | 22.6 µM (inactive) | 16.5 µM (inactive) | > 100 µM (inactive) |  | 26.7 µM (inactive) | 26.2 µM (inactive) | 19.2 µM (inactive) | 22.6 µM (inactive) |  | 35.7 µM (inactive) | 25.8 µM | 29.2 µM (inactive) |  | 16.6 µM (inactive) | > 100 µM (inactive) | 35.5 µM (inactive)
